Reference: BindingDB's records for doi:10.1021/np2005083 (National Cancer Institute-Frederick, 2011)

Molecular target: Transcription factor Jun (Homo sapiens, UniProt P05412)
Test: Inhibition of AP1 expressed in HEK293T cells coexpressing beta-lactamase pre-incubated 1 hr before TPA addition measured 18 hrs post TPA challenge by fluorimetric assay

Chain of Transcription factor Jun (P05412 whole entry): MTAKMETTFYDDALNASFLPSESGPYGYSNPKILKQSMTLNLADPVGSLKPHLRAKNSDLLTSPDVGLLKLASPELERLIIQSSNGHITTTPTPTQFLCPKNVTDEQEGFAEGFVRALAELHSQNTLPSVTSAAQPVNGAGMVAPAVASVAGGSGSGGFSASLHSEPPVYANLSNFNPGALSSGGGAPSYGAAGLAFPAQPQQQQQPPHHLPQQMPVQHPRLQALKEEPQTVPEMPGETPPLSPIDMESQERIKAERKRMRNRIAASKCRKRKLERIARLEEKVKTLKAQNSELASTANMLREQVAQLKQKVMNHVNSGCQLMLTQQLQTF

| IC50 [µM] | Compound |
| --- | --- |
| 5.2 | CC[C@H]1NC(=O)[C@@H]2CSC(=N2)[C@@H](Cc2ccccc2)N(C)C(=O)[C@@H]2CCCN2C(=O)[C@H](C(C)C)N(C)C(=O)[C@H](Cc2ccccc2)OC(=O)[C@H](C)[C@@H](C)NC(=O)[C@@H](C(C)C)NC(=O)[C@@H](Cc2ccccc2)N(C)C(=O)[C@@H]2CSC1=N2 |
| 6 | CC(C)[C@H]1C(=O)N2CCC[C@H]2C(=O)N(C)[C@H](Cc2ccccc2)C2=N[C@@H](CS2)C(=O)N[C@H](C)C2=N[C@@H](CS2)C(=O)N(C)[C@H](Cc2ccccc2)C(=O)N[C@H](C(C)C)C(=O)N[C@H](C)[C@@H](C)C(=O)O[C@@H](Cc2ccccc2)C(=O)N1C |
